# Measured values published in patent US10441536B2, “Micronized colistimethane sodium pharmaceutical compositions” (Forest Laboratories Holdings Limited, priority 2013, dated 2019).
# Legend:
# [1] = type: in vivo, patients
# Experimental: In one clinical trial, the absorption of the powdered colistimethate sodium into the airways of the lungs was measured (specific airway conductance). […] This is a very high uptake, and more than would be expected from a powdered drug. […] In a second trial, patients were given a premedication dose of 200 micrograms of salbutamol. […] In an alternative medication regime, the salbutamol can be mixed into the same capsule as the colistin sulphomethate sodium.
# [2] = in vivo; cited from earlier work
# [3] = Water content (Karl-Fisher) of colistimethate sodium powder and gelatin capsules in various storage conditions; type: physicochemical; set-up: unit not given here; conditions: n = 3
# Experimental: Aliquots of colistimethate sodium encapsulated in gelatin capsules were stored in relative humidity ranging from about 20% RH to about 80% RH at ambient temperature conditions. Encapsulated colistimethate sodium was tested for moisture content and piercing performance at several time points. For example, the capsules were tested at 23° C. at 30% RH, 23° C. at 40% RH, 23° C. at 48% RH, 23° C. at 75% RH at different time points such as 1, 2, 4, and 24 hrs. Storage conditions were generated using qualified stability chambers set at the target temperature 23° C.±2° C. and the set relative humidity ±5% RH. Ambient laboratory conditions were determined to be at about 23° C.±2° C., 48% RH. Ambient conditions were verified using calibrated NIST thermo-Hygrometers. Average moisture content of colistimethate sodium as well as the moisture content of gelatin capsules was determined using Karl-Fisher determination.
# [4] = test system: gram negative microbial organisms; experiment: Synergy of activity of the mixture of components; type: cell-based
# Excerpt: Colistimethate sodium is a negatively charged molecular ion with positively charged sodium counter ions. […] There are five sulphomethate groups (CH2—OS02^−). U.S. Pat. No. 5,767,068 refers to variable groups Rx and R2; Rx is identified as 6-methyloctanoyl or 6-methylheptanoyl, and R2 as sec-butyl, isobutyl or isopropyl.
compound,measurement,setting,value
CC(C)(C)NCC(O)c1ccc(O)c(CO)c1 (stereo not shown) [salbutamol],airway conductance,"[1]; premedication dose of 200 micrograms, second trial",appeared to improve airway conductance
colistin sulphomethate sodium [colistimethate sodium],absorption into the bloodstream,[2],poorly absorbed
same,Water Content (KF),"[3]; 23° C./30% RH, 0 hr",5.44
same,Water Content (KF),"[3]; 23° C./30% RH, 1 hr",5.28
same,Water Content (KF),"[3]; 23° C./30% RH, 2 hr",5.85
same,Water Content (KF),"[3]; 23° C./30% RH, 4 hr",5.94
same,Water Content (KF),"[3]; 23° C./30% RH, 24 hr",6.54
same,Water Content (KF),"[3]; 23° C./40% RH, 0 hr",5.44
same,Water Content (KF),"[3]; 23° C./40% RH, 1 hr",5.96
same,Water Content (KF),"[3]; 23° C./40% RH, 2 hr",5.81
same,Water Content (KF),"[3]; 23° C./40% RH, 4 hr",6.51
same,Water Content (KF),"[3]; 23° C./40% RH, 9 hr",6.50
same,Water Content (KF),"[3]; 23° C./40% RH, 24 hr",9.54
same,Water Content (KF),"[3]; 23° C./48% RH, 0 hr",5.44
same,Water Content (KF),"[3]; 23° C./48% RH, 1 hr",5.68
same,Water Content (KF),"[3]; 23° C./48% RH, 2 hr",6.39
same,Water Content (KF),"[3]; 23° C./48% RH, 4 hr",6.64
same,Water Content (KF),"[3]; 23° C./48% RH, 24 hr",14.49
same,Water Content (KF),"[3]; 23° C./75% RH, 0 hr",5.44
same,Water Content (KF),"[3]; 23° C./75% RH, 1 hr",7.04
same,Water Content (KF),"[3]; 23° C./75% RH, 2 hr",6.96
same,Water Content (KF),"[3]; 23° C./75% RH, 4 hr",10.74
same,irritation of the lungs,"[1]; human, in vivo",does not cause irritation
same,"specific airway conductance, whole body plethysmography, compared with traditional nebulised colistimethate sodium","[1]; human, in vivo",did not show any noticeable difference
same,activity of the mixture of components against gram negative microbial organisms,[4],synergy of activity
